Measurements reported in US8945061B2, “Otic formulations, methods and devices” (Entrx LLC, priority 2012, dated 2015).
Converted amounts (≈) assume the structure as drawn.

Legend:
[1] = test system: fungus and bacteria; conditions: published literature; cited from earlier work
[2] = test system: C. albicans; conditions: n=5 strains, 48 hours, prominent growth reduction endpoint
[3] = test system: C. glabrata; conditions: n=5 strains, 48 hours, prominent growth reduction endpoint
[4] = test system: C. krusei; conditions: n=5 strains, 48 hours, prominent growth reduction endpoint
[5] = test system: C. tropicalis; conditions: n=5 strains, 48 hours, prominent growth reduction endpoint
[6] = test system: C. parapsilosis; conditions: n=1 strain, 48 hours, prominent growth reduction endpoint
[7] = test system: C. lusitaniae; conditions: n=1 strain, 48 hours, prominent growth reduction endpoint
[8] = test system: A. fumigatus; conditions: n=5 strains, 48 hours, prominent growth reduction endpoint
[9] = test system: A. niger; conditions: n=5 strains, 48 hours, prominent growth reduction endpoint
[10] = test system: Staphlococcus aureus; conditions: cited from earlier work
[11] = test system: Pseudomonas; conditions: cited from earlier work
[12] = test system: 22 Candida spp. and 10 Aspergillus spp.; conditions: all yeasts and moulds tested; judged from high MICs

Cc1cccc(N(C)C(=S)Oc2ccc3ccccc3c2)c1 [tolnaftate]
Spectrum of Efficacy [1]: Fungistatic for dermatophytes and Tinea Versicoior

Clc1ccccc1C(c1ccccc1)(c1ccccc1)n1ccnc1 [CTZ, clotrimazole]
MIC range [2]: ≦0.015 mcg/ml | MIC range [3]: 0.25 to 1 µg/mL | MIC range [4]: 0.06 to 0.125 µg/mL | MIC range [5]: 0.06 to 2 µg/mL | MIC range [6]: 0.06 µg/mL (≈ 0.174 µM) | MIC range [7]: ≦0.015 mcg/ml | MIC range [8]: 0.25 to 0.5 µg/mL | MIC range [9]: 0.5 to 1 µg/mL | Spectrum of Efficacy [1]: Aspergillus fiavus, Aspergilius fumigatus, Blastomyces | antibacterial activity [10]: demonstrated antibacterial activity | antibacterial activity [11]: demonstrated antibacterial activity

O=C(O)c1cn(C2CC2)c2cc(N3CCNCC3)c(F)cc2c1=O [CIPRO, ciprofloxacin]
antifungal activity on its own [12]: no antifungal activity on its own

C[C@@H]1[C@H](O)[C@@H](C)/C=C/C=C/CC/C=C/C=C/C=C/C=C/C(O[C@H]2O[C@H](C)[C@@H](O)[C@H](N)[C@@H]2O)CC2O[C@](O)(CC(O)C(O)CCC(O)CC(O)CC(O)CC(=O)O[C@H]1C)CC(O)C2C(=O)O (some centres unmarked) [Nystatin, nystatin]
Spectrum of Efficacy [1]: primarily fungistatic at low concentrations against biphasic
